pEC50: −log10 of the molar value.
Assays:
[1] = test system: TC-71 (EWING'S sarcoma) cells; assay: Cell proliferation assay TC-71 (Alamar Blue); assay type: cell-based; conditions: anti-proliferative effect, TC-71 cells, 72 h; read-out: TC71 EC50
Description: Cell Proliferation Assays
Compounds were tested for their anti-proliferative effects in the TC-71 (EWING'S sarcoma) and HCT 116 (colorectal carcinoma) cancer cell lines in vitro. Published scientific data has described that interference with the IGF-1R signaling pathway reduces the proliferation of TC-71 cells (Manara et al, 2007). Therefore TC-71 cells served as a positive control cell line for monitoring the activity of compounds against IGF-1R-mediated cell proliferation. […] Therefore the HCT 116 cell line served as a negative control.
2000 TC-71 cells or 1000 HCT 116 cells were seeded per well in 180 μL IMDM+10% foetal calf serum (FCS)+penicillin/streptomycin into 96-well microtitre plates. The plates were placed in a cell culture incubator (37° C. in a humidified atmosphere of […]/5% CO2) overnight. The following day, serial dilutions of compounds, prepared in duplicates, were transferred onto the cell layers (controls without compound). The cells were cultivated for a further 72 h in the cell culture incubator. 20 μL of Alamar Blue™ (Serotec Ltd, Dusseldorf, Germany) was added to each well and the plates incubated for 7 h in the cell culture incubator. Fluorescence (extinction wavelength of 544 nm and emission at 590 nm) was then measured and the normalized data fitted by iterative calculation with a sigmoidal curve analysis program (Graph Pad Prism) with a variable Hill slope to determine the EC50 values.

AMPK A1/B1/G1 = biological target: T1, AMPK A1/B1/G1 (Homo sapiens, UniProt Q13131); assay: Z'-LYTE kinase selectivity assay AMPK A1/B1/G1; assay type: biochemical; conditions: read-out: AMPK A1B1G1 % inhibition
T1 construct: purchased Life Technologies PV 4672
T1 sequence (Q13131 whole entry): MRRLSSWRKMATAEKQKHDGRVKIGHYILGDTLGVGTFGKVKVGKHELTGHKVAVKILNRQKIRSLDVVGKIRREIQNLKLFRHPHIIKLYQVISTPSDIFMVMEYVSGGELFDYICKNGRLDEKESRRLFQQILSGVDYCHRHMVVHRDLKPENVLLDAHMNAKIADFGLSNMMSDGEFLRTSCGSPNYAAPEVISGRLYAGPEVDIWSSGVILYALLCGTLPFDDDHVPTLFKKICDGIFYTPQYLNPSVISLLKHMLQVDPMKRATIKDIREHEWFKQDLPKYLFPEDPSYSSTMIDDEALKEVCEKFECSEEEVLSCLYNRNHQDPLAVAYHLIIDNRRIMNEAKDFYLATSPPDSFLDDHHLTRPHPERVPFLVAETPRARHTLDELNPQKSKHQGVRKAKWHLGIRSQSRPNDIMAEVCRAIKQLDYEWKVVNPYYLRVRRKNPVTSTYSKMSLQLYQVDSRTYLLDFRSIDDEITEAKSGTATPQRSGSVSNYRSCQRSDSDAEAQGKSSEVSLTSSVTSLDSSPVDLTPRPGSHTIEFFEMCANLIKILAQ
T1 sequence (Q9Y478 whole entry partner): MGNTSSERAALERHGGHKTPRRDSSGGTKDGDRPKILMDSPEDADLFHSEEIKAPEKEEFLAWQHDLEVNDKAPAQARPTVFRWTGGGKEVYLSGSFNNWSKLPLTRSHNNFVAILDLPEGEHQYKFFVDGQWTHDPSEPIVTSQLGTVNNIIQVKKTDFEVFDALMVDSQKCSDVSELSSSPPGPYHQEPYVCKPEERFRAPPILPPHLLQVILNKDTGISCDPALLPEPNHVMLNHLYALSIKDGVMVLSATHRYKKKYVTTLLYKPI
T1 sequence (P54619 whole entry partner): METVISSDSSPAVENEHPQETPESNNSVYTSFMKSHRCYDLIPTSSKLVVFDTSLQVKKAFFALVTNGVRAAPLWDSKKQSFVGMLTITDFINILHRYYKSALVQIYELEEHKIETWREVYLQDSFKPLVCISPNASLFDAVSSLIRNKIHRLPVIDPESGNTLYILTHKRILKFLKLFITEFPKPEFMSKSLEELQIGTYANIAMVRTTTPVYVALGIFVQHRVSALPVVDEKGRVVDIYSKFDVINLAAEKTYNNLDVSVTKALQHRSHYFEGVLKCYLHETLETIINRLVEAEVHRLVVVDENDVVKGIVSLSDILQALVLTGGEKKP
Description: (§1) In order to compare the kinase selectivity of compounds (I) according to the invention with known prior art compounds the commercially provided SelectScreen® Kinase Profiling Service (Z′-LYTE®) was used (Life Technologies GmbH, Darmstadt, Germany) to investigate the ability of the compounds to inhibit a number of different, representatively selected human kinases. Further details regarding this service are available on the Life Technologies website at
(§2) The Z′-LYTE® biochemical assay employs a fluorescence-based, coupled-enzyme format and is based on the differential sensitivity of phosphorylated and non-phosphorylated peptides to proteolytic cleavage. The peptide substrate is labeled with two fluorophores—one at each end—that make up a FRET pair.
(§3) In the primary reaction, the kinase transfers the gamma-phosphate of ATP to a single tyrosine, serine or threonine residue in a synthetic FRET-peptide. In the secondary reaction, a site-specific protease recognizes and cleaves non-phosphorylated FRET-peptides. Phosphorylation of FRET-peptides suppresses cleavage by the Development Reagent. Cleavage disrupts FRET between the donor (i.e., coumarin) and acceptor (i.e., fluorescein) fluorophores on the FRET-peptide, whereas uncleaved, phosphorylated FRET-peptides maintain FRET. A ratiometric method, which calculates the ratio (the Emission Ratio) of donor emission to acceptor emission after excitation of the donor fluorophore at 400 nm, is used to quantitate reaction progress, as shown in the equation below.
(§4) The Test Compounds are screened at 1 μM.
The 2×AMPK A1/B1/G1 (# PV 4672)/Ser/Thr 23 (Z′-LYTE® Kinase Assay Kit—Ser/Thr 23 Peptide, # PV 4644) mixture is prepared in 50 mM HEPES pH 7.5, 0.01% BRIJ-35, 10 mM MgCl2, 1 mM EGTA. The final 10 μL Kinase Reaction consists of 0.43-2.86 ng AMPK A1/B1/G1 and 2 μM Ser/Thr 23 in 50 mM HEPES pH 7.5, 0.01% BRIJ-35, 10 mM MgCl2, 1 mM EGTA. After the 1 hour Kinase Reaction incubation, 5 μL of a 1:4096 dilution of Development Reagent A is added.

GSK3B (GSK3 beta) = biological target: T2, GSK3B (GSK3 beta) (Homo sapiens, UniProt P49841); assay: Z'-LYTE kinase selectivity assay GSK3B; assay type: biochemical
T2 construct: purchased Life Technologies PV 3365
T2 sequence (P49841 whole entry): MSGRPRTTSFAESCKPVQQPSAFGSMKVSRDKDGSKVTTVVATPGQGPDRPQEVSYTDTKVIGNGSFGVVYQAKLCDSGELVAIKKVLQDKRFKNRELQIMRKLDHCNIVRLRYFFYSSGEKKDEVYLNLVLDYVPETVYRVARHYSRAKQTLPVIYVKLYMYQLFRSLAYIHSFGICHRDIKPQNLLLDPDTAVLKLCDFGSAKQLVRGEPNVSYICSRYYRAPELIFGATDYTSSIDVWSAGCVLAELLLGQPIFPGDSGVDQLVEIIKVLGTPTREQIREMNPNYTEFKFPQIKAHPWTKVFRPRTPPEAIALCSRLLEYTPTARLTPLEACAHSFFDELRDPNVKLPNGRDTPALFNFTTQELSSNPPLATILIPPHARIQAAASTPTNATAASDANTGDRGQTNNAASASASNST
Description: as §1, §2, §3, §4
The 2×GSK3B (GSK3 beta) (# PV 3365)/Ser/Thr 09 (Z′-LYTE® Kinase Assay Kit—Ser/Thr 9 Peptide, # PV 3324) mixture is prepared in 50 mM HEPES pH 7.5, 0.01% BRIJ-35, 10 mM MgCl2, 1 mM EGTA. The final 10 μL Kinase Reaction consists of 0.17-0.88 ng GSK3B (GSK3 beta) and 2 μM Ser/Thr 09 in 50 mM HEPES pH 7.5, 0.01% BRIJ-35, 10 mM MgCl2, 1 mM EGTA. After the 1 hour Kinase Reaction incubation, 5 μL of a 1:512 dilution of Development Reagent A is added.

STK3 (MST2) = biological target: T3, STK3 (MST2) (Homo sapiens, UniProt Q13188); assay: Z'-LYTE kinase selectivity assay STK3; assay type: biochemical
T3 construct: purchased Life Technologies PV 4805
T3 sequence (Q13188 1-491): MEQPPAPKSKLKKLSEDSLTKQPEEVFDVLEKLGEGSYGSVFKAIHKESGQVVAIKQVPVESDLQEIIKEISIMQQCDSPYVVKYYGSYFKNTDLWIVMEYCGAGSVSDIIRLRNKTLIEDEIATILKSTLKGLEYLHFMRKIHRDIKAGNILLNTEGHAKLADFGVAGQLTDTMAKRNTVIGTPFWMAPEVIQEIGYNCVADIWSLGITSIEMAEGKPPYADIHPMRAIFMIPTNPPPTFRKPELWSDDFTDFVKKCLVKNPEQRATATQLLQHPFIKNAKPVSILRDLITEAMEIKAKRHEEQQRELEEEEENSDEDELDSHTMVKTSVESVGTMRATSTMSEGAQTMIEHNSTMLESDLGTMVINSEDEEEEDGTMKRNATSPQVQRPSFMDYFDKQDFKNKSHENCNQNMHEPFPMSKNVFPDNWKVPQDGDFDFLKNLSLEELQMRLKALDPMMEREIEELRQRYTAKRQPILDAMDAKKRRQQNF
Description: as §1, §2, §3, §4
The 2×STK3 (MST2) (# PV 4805)/Ser/Thr 07 (Z′-LYTE® Kinase Assay Kit—Ser/Thr 7 Peptide, # PV 3180) mixture is prepared in 50 mM HEPES pH 6.5, 0.01% BRIJ-35, 10 mM MgCl2, 1 mM EGTA, 0.02% NaN3. The final 10 μL Kinase Reaction consists of 6.25-38.7 ng STK3 (MST2) and 2 μM Ser/Thr 07 in 50 mM HEPES pH 7.0, 0.01% BRIJ-35, 10 mM MgCl2, 1 mM EGTA, 0.01% NaN3. After the 1 hour Kinase Reaction incubation, 5 μL of a 1:65000 dilution of Development Reagent A is added.

pEC50 [1] | inhibition at 1 µM (AMPK A1/B1/G1) [%] | inhibition at 1 µM (GSK3B (GSK3 beta)) [%] | inhibition at 1 µM (STK3 (MST2)) [%] | SMILES
8.66 | 39 | 10 | 15 | CC(O)CN1CCN(CCn2ccc(Nc3ncc4c(n3)-c3c(nn(C)c3-c3ccccc3)C[C@H]4C)n2)CC1 (stereo partly shown) [Compound I-7]
8.43 | 28 | 8 | -2 | COCCN1CCN(CCn2ccc(Nc3ncc4c(n3)-c3c(nn(C)c3-c3ccccc3)C[C@H]4C)n2)CC1 [Compound I-11]
8.57 | 43 | 9 | -1 | C[C@@H]1Cc2nn(C)c(-c3ccccc3)c2-c2nc(Nc3ccn(CCN4CCN(CC(C)(C)O)CC4)n3)ncc21 [Compound I-3]
8.58 | 36 | 14 | 1 | C[C@@H]1Cc2nn(C)c(-c3ccccc3)c2-c2nc(Nc3ccn(CCN4CCN(C)CC4)n3)ncc21 [Compound I-1]
8.22 | 29 | 14 | -1 | C[C@@H]1Cc2nn(C)c(-c3ccccc3)c2-c2nc(Nc3ccn(CCN4CCN(CC(=O)OC5CCOCC5)CC4)n3)ncc21 [Compound I-8]
8.27 | 35 | 9 | -15 | C[C@@H]1Cc2nn(C)c(-c3ccccc3)c2-c2nc(Nc3ccn(CCN4CCN(CC5CCCO5)CC4)n3)ncc21 (stereo partly shown) [Compound I-9]
8.63 | 34 | 10 | 5 | C[C@@H]1Cc2nn(C)c(-c3ccccc3)c2-c2nc(Nc3ccn(CCN4CCOCC4)n3)ncc21 [Compound I-2]

From US10414769B2, “5,8-dimethyl-9-phenyl-5,8-dihydro-6H-pyrazolo[3,4-h]quinazolin-2-yl)-(1H-pyrazol-3-yl)-amines as IGF-1R/IR inhibitors” (Boehringer Ingelheim International GmbH, priority 2015, dated 2019)
